Test results published in patent publication EP1534716B1, “HETEROBICYCLIC PYRAZOLE DERIVATIVES AS KINASE INHIBITORS” (priority 2002, dated 2004).

How the values were obtained:
Assay type in all cases: biochemical
[1] = target: cdk2/Cyclin A (Homo sapiens, UniProt P24941); assay: Inhibition assay of cdk2/Cyclin A activity (SPA); conditions: 10 µM ATP, 60 min at room temperature
Protocol: (§1) The inhibiting activity of putative cdk/cyclin inhibitors and the potency of selected compounds is determined through a method of assay based on the use of the SPA technology (Amersham Pharmacia Biotech).
(§2) The assay consists of the transfer of radioactivity labelled phosphate moiety by the kinase to a biotinylated substrate. The resulting 33P-labelled biotinylated product is allowed to bind to streptavidin-coated SPA beads (biotin capacity 130 pmol/mg), and light emitted was measured in a scintillation counter.
Inhibition assay of cdk2/Cyclin A activity
Kinase reaction: 4 µM in house biotinylated histone H1 (Sigma # H-5505) substrate, 10 µM ATP (0.1 microCi P^33γ-ATP), 1.1 nM Cyclin A/CDK2 complex, inhibitor in a final volume of 30 µl buffer (TRIS HCl 10 mM pH 7.5, MgCl2 10 mM, DTT 7.5 mM + 0.2 mg/ml BSA) were added to each well of a 96 U bottom. After incubation for 60 min at room temperature, the reaction was stopped by addition of 100 µl PBS buffer containing 32 mM EDTA, 500 µM cold ATP, 0.1% Triton X100 and 10mg/ml streptavidin coated SPA beads. After 20 min incubation, 110 µL of suspension were withdrawn and transferred into 96-well OPTIPLATEs containing 100 µl of 5M CsCl. After 4 hours, the plates were read for 2 min in a Packard TOP-Count radioactivity reader.
(§3) Experimental data were analyzed by the computer program GraphPad Prizm using the four parameter logistic equation: [formula] where x is the logarithm of the inhibitor concentration, y is the response; y starts at bottom and goes to top with a sigmoid shape.

[2] = target: T1, Aurora-2 (Homo sapiens, UniProt O14965); assay: Inhibition assay of Aurora-2 activity (SPA); conditions: 10 µM ATP, 60 minutes at room temperature
T1 sequence (O14965 1-403): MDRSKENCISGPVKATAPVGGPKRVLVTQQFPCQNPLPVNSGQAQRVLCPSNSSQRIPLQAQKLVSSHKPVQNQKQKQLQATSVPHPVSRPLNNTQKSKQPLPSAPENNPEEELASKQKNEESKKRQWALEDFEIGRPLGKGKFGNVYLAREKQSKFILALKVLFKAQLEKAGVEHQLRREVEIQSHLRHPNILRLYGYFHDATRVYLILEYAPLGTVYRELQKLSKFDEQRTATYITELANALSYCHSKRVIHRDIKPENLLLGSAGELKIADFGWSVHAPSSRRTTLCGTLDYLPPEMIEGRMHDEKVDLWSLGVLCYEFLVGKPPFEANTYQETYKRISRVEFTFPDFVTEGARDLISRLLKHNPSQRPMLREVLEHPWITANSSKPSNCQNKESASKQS
Protocol: as §1, §2, §3
Inhibition assay of Aurora-2 activity
After 60 minutes at room temperature incubation, reaction was stopped and biotinylated peptide captured by adding 100 µl of bead suspension.
Stratification: 100 µl of CsC12 5 M were added to each well and let stand 4 hour before radioactivity was counted in the Top-Count instrument.
IC50 determination: see above

[3] = target: PAK4 (Homo sapiens, UniProt O96013); assay: PAK4 inhibition
Sequence of PAK4 (O96013 whole entry, species assumed): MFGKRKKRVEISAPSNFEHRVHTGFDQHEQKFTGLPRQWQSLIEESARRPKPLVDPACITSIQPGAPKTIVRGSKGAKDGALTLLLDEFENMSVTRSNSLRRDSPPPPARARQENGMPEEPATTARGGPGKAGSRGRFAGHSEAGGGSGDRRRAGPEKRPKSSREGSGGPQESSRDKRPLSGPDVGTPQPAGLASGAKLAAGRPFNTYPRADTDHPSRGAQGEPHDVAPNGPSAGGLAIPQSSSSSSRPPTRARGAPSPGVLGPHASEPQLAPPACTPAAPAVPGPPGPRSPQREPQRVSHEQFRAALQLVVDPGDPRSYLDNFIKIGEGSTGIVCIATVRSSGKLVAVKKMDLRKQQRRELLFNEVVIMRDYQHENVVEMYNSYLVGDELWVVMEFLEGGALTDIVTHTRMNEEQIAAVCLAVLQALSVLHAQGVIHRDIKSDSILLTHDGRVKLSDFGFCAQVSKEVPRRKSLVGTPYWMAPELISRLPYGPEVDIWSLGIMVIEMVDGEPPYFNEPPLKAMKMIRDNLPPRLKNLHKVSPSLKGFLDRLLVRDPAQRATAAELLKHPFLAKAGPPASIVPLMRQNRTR

Row | Compound | IC50 [1] [nM] | IC50 [2] [nM] | IC50 [3] [nM]
1 | C=CCNC(=O)c1cc2[nH]nc(NC(=O)NCc3ccccc3)c2s1 [Compound 87, N-allyl-3-{[(benzylamino)carbonyl]amino}-1H-thieno[3,2-c]pyrazole-5-carboxamide] | < 500 |  | 
2 | CCCCNC(=O)c1cc2[nH]nc(NC(=O)c3cccs3)c2s1 [Compound 79, N-butyl-3-[(thien-2-ylcarbonyl)amino]-1H-thieno[3,2-c]pyrazole-5-carboxamide] | < 500 | < 100 | 
3 | Cc1cccc(Cl)c1NC(=O)c1cc2[nH]nc(NC(=O)c3ccc(N4CCN(C)CC4)cc3)c2s1 [Compound 109, N-(2-chloro-6-methylphenyl)-3-{[4-(4-methylpiperazin-1-yl)benzoyl]amino}-1H-thieno[3,2-c]pyrazole-5-carboxamide] |  | < 100 | 
4 | CN1CCN(C(=O)c2cc3[nH]nc(NC(=O)c4ccc(F)cc4)c3s2)CC1 [Compound 63, 4-fluoro-N-{5-[(4-methylpiperazin-1-yl)carbonyl]-1H-thieno[3,2-c]pyrazol-3-yl}benzamide] | < 500 |  | 
5 | O=C(Nc1n[nH]c2cc(C(=O)NCc3ccccc3)sc12)c1cc(F)cc(F)c1 [Compound 65, N-benzyl-3-[(3,5-difluorobenzoyl)amino]-1H-thieno[3,2-c]prazole-5-carboxamide] | < 500 |  | 
6 | C[C@@H](NC(=O)c1cc2[nH]nc(NC(=O)c3ccc(CN4CCOCC4)o3)c2s1)c1ccccc1 [Compound 82, 3-{[5-(morpholin-4-ylmethyl)-2-furoyl]amino}-N-[(1R)-1-phenylethyl]-1H-thieno[3,2-c]pyrazole-5-carboxamide] |  | < 100 | 
7 | CCc1cccc(CC)c1NC(=O)c1cc2[nH]nc(NC(=O)c3ccc(N4CCN(C)CC4)cc3)c2s1 [Compound 107, N-(2,6-diethylphenyl)-3-{[4-(4-methylpiperazin-1-yl)benzoyl]amino}-1H-thieno[3,2-c]pyrazole-5-carboxamide] |  | < 100 | 
8 | CN1CCN(c2ccc(C(=O)Nc3n[nH]c4cc(C(=O)N(C)Cc5ccccc5)sc34)cc2)CC1 [Compound 113, N-benzyl-N-methyl-3-{[4-(4-methylpiperazin-1-yl)benzoyl]amino}-1H-thieno[3,2-c]pyrazole-5-carboxamide] |  | < 100 | 
9 | Cc1cccc(C)c1NC(=O)c1cc2[nH]nc(NC(=O)c3ccc(N4CCN(C)CC4)cc3)c2s1 [Compound 108, N-(2,6-dimethylphenyl)-3-{[4-(4-methylpiperazin-1-yl)benzoyl]amino}-1H-thieno[3,2-c]pyrazole-5-carboxamide] |  | < 100 | 
10 | Cc1c(C(=O)NCc2ccc(F)cc2)sc2c(NC(=O)c3cccs3)n[nH]c12 [Compound 146, N-(4-fluorobenzyl)-6-methyl-3-[(thien-2-ylcarbonyl)amino]-1H-thieno[3,2-c]pyrazole-5-carboxamide] | < 500 | < 100 | 
11 | CCCCNC(=O)c1cc2[nH]nc(NC(=O)C3CC3)c2s1 [Compound 85, N-butyl-3-[(cyclopropylcarbonyl)amino]-1H-thieno[3,2-c]pyrazole-5-carboxamide] | < 500 |  | 
12 | CN1CCN(C(=O)c2cc3[nH]nc(NC(=O)c4ccc(F)cc4)c3o2)CC1 [Compound 167, 4-fluoro-N-{5-[(4-methylpiperazin-1-yl)carbonyl]-1H-furo[3,2-c]pyrazol-3-yl}benzamide] | < 500 |  | 
13 | CCCCNC(=O)c1cc2[nH]nc(NC(=O)CCCC)c2s1 [Compound 84, N-butyl-3-(pentanoylamino)-1H-thieno[3,2-c]pyrazole-5-carboxamide] | < 500 |  | 
14 | Cc1cccc(Cl)c1CNC(=O)c1cc2[nH]nc(NC(=O)c3ccc(N4CCN(C)CC4)cc3)c2s1 [Compound 122, N-(2-chloro-6-methylbenzyl)-3-{[4-(4-methylpiperazin-1-yl)benzoyl]amino}-1H-thieno[3,2-c]pyrazole-5-carboxamide bis(trifluoroacetate)] |  | < 100 | 
15 | CCCCNC(=O)c1cc2[nH]nc(NC(=O)C3CC3)c2s1 [Compound 86, N-butyl-3-[(cyclopropylcarbonyl)amino]-1H-thieno[3,2-c]pyrazole-5-carboxamide] | < 500 |  | 
16 | CCNC(=O)c1cc2[nH]nc(NC(=O)c3ccc(C(C)(C)C)cc3)c2s1 [Compound 66, 3-[(4-tert-butylbenzoyl)amino]-N-ethyl-1H-thieno[3,2-c]pyrazole-5-carboxamide] |  | < 100 | 
17 | Cc1c(C(=O)NCc2ccc(F)cc2)sc2c(NC(=O)c3ccc(F)cc3)n[nH]c12 [Compound 145, 3-[(4-fluorobenzoyl)amino]-N-(4-fluorobenzyl)-6-methyl-1H-thieno[3,2-c]pyrazole-5-carboxamide] | < 500 |  | 

More lines, now with the values ahead:

Row | IC50 [1] [nM] | IC50 [2] [nM] | IC50 [3] [nM] | Compound
18 |  | < 100 |  | CN1CCN(c2ccc(C(=O)Nc3n[nH]c4cc(C(=O)NCc5cccc(F)c5)sc34)cc2)CC1 [Compound 94, N-(3-fluorobenzyl)-3-{[4-(4-methylpiperazin-1-yl)benzoyl]amino}-1H-thieno[3,2-c]pyrazole-5-carboxamide]
19 |  | < 100 |  | O=C(Nc1n[nH]c2cc(C(=O)NCc3ccc(Cl)cc3)sc12)c1ccc(N2CCOCC2)cc1 [Compound 134, N-(4-chlorobenzyl)-3-[(4-morpholin-4-ylbenzoyl)amino]-1H-thieno[3,2-c]pyrazole-5-carboxamide]
20 |  | < 100 |  | CN1CCN(c2ccc(C(=O)Nc3n[nH]c4cc(C(=O)NCc5ccc(C(F)(F)F)cc5)sc34)cc2)CC1 [Compound 104, 3-{[4-(4-methylpiperazin-1-yl)benzoyl]amino}-N-[4-(trifluoromethyl)benzyl]-1H-thieno[3,2-c]pyrazole-5-carboxamide]
21 |  | < 100 | < 500 | COC[C@@H](NC(=O)c1cc2[nH]nc(NC(=O)c3ccc(N4CCOCC4)cc3)c2s1)c1ccccc1 [Compound 129, N-[(1S)-2-methoxy-1-phenylethyl]-3-[(4-morpholin-4-ylbenzoyl)amino]-1H-thieno[3,2-c]pyrazole-5-carboxamide]
22 |  | < 100 | < 500 | CC[C@@H](NC(=O)c1cc2[nH]nc(NC(=O)c3ccc(N4CCOCC4)cc3)c2s1)c1ccccc1 [Compound 131, 3-[(4-morpholin-4-ylbenzoyl)amino]-N-[(1R)-1-phenylpropyl]-1H-thieno[3,2-c]pyrazole-5-carboxamide]
23 |  | < 100 | < 500 | O=C(Nc1n[nH]c2cc(C(=O)NCc3cccc(F)c3)sc12)c1ccc(N2CCOCC2)cc1 [Compound 132, N-(3-fluorobenzyl)-3-[(4-morpholin-4-ylbenzoyl)amino]-1H-thieno[3,2-c]pyrazole-5-carboxamide]
24 |  | < 100 |  | O=C(Nc1n[nH]c2cc(C(=O)NC(c3ccccc3)c3ccccc3)sc12)c1ccc(N2CCOCC2)cc1 [Compound 128, N-benzhydryl-3-[(4-morpholin-4-ylbenzoyl)amino]-1H-thieno[3,2-c]pyrazole-5-carboxamide]
25 |  | < 100 | < 500 | CN1CCN(c2ccc(C(=O)Nc3n[nH]c4cc(C(=O)NCc5cccc(Cl)c5)sc34)cc2)CC1 [Compound 96, N-(3-chlorobenzyl)-3-{[4-(4-methylpiperazin-1-yl)benzoyl]amino}-1H-thieno[3,2-c]pyrazole-5-carboxamide]
26 |  | < 100 |  | CC(NC(=O)c1cc2[nH]nc(NC(=O)c3ccc(N4CCOCC4)cc3)c2s1)c1ccc(Cl)cc1 (centres unmarked) [Compound 130, N-[1-(4-chlorophenyl)ethyl]-3-[(4-morpholin-4-ylbenzoyl)amino]-1H-thieno[3,2-c]pyrazole-5-carboxamide]
27 |  |  | < 500 | CN1CCN(c2ccc(C(=O)Nc3n[nH]c4cc(C(=O)NCc5ccccc5)sc34)cc2)CC1 [Compound 91, N-benzyl-3-{[4-(4-methylpiperazin-1-yl)benzoyl]amino}-1H-thieno[3,2-c]pyrazole-5-carboxamide]
28 |  | < 100 |  | CN1CCN(c2ccc(C(=O)Nc3n[nH]c4cc(C(=O)NCc5ccc(Cl)cc5)sc34)cc2)CC1 [Compound 97, N-(4-chlorobenzyl)-3-{[4-(4-methylpiperazin-1-yl)benzoyl]amino}-1H-thieno[3,2-c]pyrazole-5-carboxamide]
29 |  | < 100 |  | CN1CCN(c2ccc(C(=O)Nc3n[nH]c4cc(C(=O)NCc5ccccc5Cl)sc34)cc2)CC1 [Compound 106, N-(2-chlorobenzyl)-3-{[4-(4-methylpiperazin-1-yl)benzoyl]amino}-1H-thieno[3,2-c]pyrazole-5-carboxamide]
